Read-outs that look alike come from different tables or passages of the source.
Tests used:
[1] = tested on: a studied cancer cell line; set-up: method as in PMID 32736079; details: cited from earlier work
[2] = tested on: Hela cell line; set-up: method as in PMID 33808444; details: cited from earlier work
[3] = tested on: Huha cell line; set-up: method as in PMID 33808444; details: cited from earlier work
[4] = tested on: MCF-7 (breast carcinoma) cell line; assay: MTT assay, MCF-7; assay type: cell-based, human; details: mean ± SD, triplicate
Text: (§1) The cytotoxic activity of the designed compounds (4a-4l) was obtained by MTT assay (standard 3-(4,5-dimethylthiazol-yl)-2,5-diphenyl-tetrazolium bromide) according to our previous protocols. Two human cancer cell lines including MCF-7 (breast carcinoma) and HEPG-2 (Hepatocellular carcinoma) were purchased from the National Cell Bank of Iran (NCBI, Pasteur Institute, Tehran, Iran). RPMI 1640 culture media was used to culture cancer cell lines. The media was supplemented with 10% fetal bovine serum (FBS) and 1% penicillin–streptomycin (Gibco, USA), and the cells were kept at 37 °C in a humidified CO2 incubator. For the MTT assay, trypsin/EDTA 0.5% solution (Gibco/USA) was applied to harvest cells and seeded in 96-well microplates at a density of 1 × 10^4 cells per well [26]. Five different concentrations of the designed compounds and Cisplatin as the positive control (1–200 μM) were used for treatment in triplicate times. Three untreated wells were used as the negative control. After 72 h, the media was changed by 100 μL fresh MTT solution and incubated for 4 h at 37 °C in the incubator to obtain formazan purple crystals. Finally, the media was removed and 150 μL of DMSO was added and incubated at 37 °C in dark for 10 min to dissolve the crystals. The absorbance of individual wells was read at 490 nm using a microplate ELISA reader. Excel 2016 and Curve Expert 1.4 were used to analyze the data. The data were presented as mean ± SD for each analysis.

[5] = tested on: HEPG-2 (Hepatocellular carcinoma) cell line; assay: MTT assay, HEPG-2; assay type: cell-based, human; details: mean ± SD, triplicate
Text: as §1

[6] = tested on: normal lung cell line (MRC-5); assay: MTT assay, MRC-5 normal cells; assay type: cell-based
[7] = tested on: MCF-7 and HEPG-2 cell lines; assay: MTT assay, ranges over both cancer cell lines; assay type: cell-based; details: Homo sapiens; range spans both cell lines
Text: as §1, with “Excel 2016 and Curve Expert 1.4 were used to analyze the data. The data were presented as mean ± SD for each analysis.” left out

[8] = Homo sapiens, MRC5, read-out: IC50 ± SD, MRC-5

| SMILES | IC50 ([4]; Homo sapiens, MCF7, 72 h) | IC50 ([5]; Homo sapiens, HepG2, 72 h) | IC50 [6, 8] | melting point | also measured |
| --- | --- | --- | --- | --- | --- |
| O=c1[nH]c(=O)n(Cc2ccc(-c3noc(-c4ccc(-c5ccccc5)cc4)n3)cc2)cc1F [A] |  |  |  |  | IC50 [1]: 0.88 µM |
| Cc1ccc(Cn2cc(Cn3c(Cl)cc(=O)n(C)c3=O)nn2)cc1 [B] |  |  |  |  | IC50 [2]: 4.5 µM; IC50 [3]: 7.7 µM |
| N.N.[Cl][Pt][Cl] [Cis platin, Cisplatin, reference compound] |  |  |  |  | IC50 ([4]; 72 h): 20.7 ± 0.83 µM; IC50 ([5]; 72 h): 15.9 ± 1.83 µM; IC50 ([6]; read-out: IC50 ± SD, MRC-5): 45.2 ± 2.5 µM |
| Cn1c(=O)cc(-n2ccnc2)n(Cc2ccccc2)c1=O [Compound 4a, 3-methyl-1-(benzyl)-6-(H1-imidazole-1-yl) pyrimidine-2,4-(H1, H3) dione] | 150.5 ± 0.77 µM | 193 ± 7.98 µM | > 200 µM | 138 to 142 °C |  |
| Cc1cccc(Cn2c(-n3ccnc3)cc(=O)n(C)c2=O)c1 [Compound 4b, 3-methyl-1-(3-methylbenzyl)-6-(H1-imidazole-1-yl) pyrimidine-2,4-(H1, H3) dione] | 17.1 ± 1.3 µM | 48.5 ± 1.97 µM | 61.8 ± 2.3 µM | 123 to 124 °C | IC50 [7]: 17.1 to 48.5 µM |
| Cc1ccc(Cn2c(-n3ccnc3)cc(=O)n(C)c2=O)cc1 [Compound 4c, 3-methyl-1-(4-methylbenzyl)-6-(H1-imidazole-1-yl) pyrimidine-2,4-(H1, H3) dione] | 26.1 ± 4.41 µM | 27.2 ± 1.66 µM | 101 ± 3.02 µM | 100 to 102 °C | IC50 [7]: 17.1 to 48.5 µM |
| Cn1c(=O)cc(-n2ccnc2)n(Cc2ccc(Br)cc2)c1=O [Compound 4d, 3-methyl-1-(4-bromobenzyl)-6-(H1-imidazole-1-yl) pyrimidine-2,4-(H1, H3) dione] | 131 ± 3.1 µM | 177 ± 4.06 µM | > 200 µM | 110 to 113 °C |  |
| Cc1nccn1-c1cc(=O)n(C)c(=O)n1Cc1ccccc1 [Compound 4e, 3-methyl-1-(benzyl) 6-(2-methyl-H1-imidazol-1-yl) pyrimidine-2,4-(H1, H3) dione] | 92 ± 2.19 µM |  | > 200 µM | 138 to 140 °C |  |
| Cc1ccc(Cn2c(-n3ccnc3C)cc(=O)n(C)c2=O)cc1 [Compound 4f, 3-methyl-1-(4-methylbenzyl)-6-(2-methyl-H1-imidazole-1-yl) pyrimidine-2,4-(H1, H3) dione] | 65.5 ± 3.1 µM | 55.9 ± 6.58 µM | > 200 µM | 120 to 122 °C |  |
| Cc1nccn1-c1cc(=O)n(C)c(=O)n1Cc1ccc(Br)cc1 [Compound 4g, 3-methyl-1-(4-bromobenzyl)-6-(2-methyl-H1-imidazole-1-yl) pyrimidine-2,4-(H1, H3) dione] | 109 ± 3.74 µM | 106 ± 3.03 µM | > 200 µM | 160 to 162 °C |  |
| Cn1c(=O)cc(-n2cncn2)n(Cc2ccccc2)c1=O [Compound 4h, 3-methyl-1-(benzyl)-6-(H1-1,2,4-triazole-1-yl) pyrimidine-2,4-(H1, H3) dione] |  |  |  | 91 to 93 °C |  |
| Cc1cccc(Cn2c(-n3cncn3)cc(=O)n(C)c2=O)c1 [Compound 4i, 3-methyl-1-(3-methylbenzyl)-6-(H1-1,2,4-triazole-1-yl) pyrimidine-2,4-(H1, H3) dione] | 43.1 ± 2.07 µM | 65.4 ± 2.15 µM | > 200 µM | 125 to 128 °C |  |
| Cc1ccc(Cn2c(-n3cncn3)cc(=O)n(C)c2=O)cc1 [Compound 4j, 3-methyl-1-(4-methylbenzyl)-6-(H1-1,2,4-triazole-1-yl) pyrimidine-2,4-(H1, H3) dione] | 16.2 ± 1.02 µM | 7.56 ± 5.28 µM | 57.3 ± 2.08 µM | 116 to 118 °C |  |

Reference: PMC10765869, “Synthesis, design, biological evaluation, and computational analysis of some novel uracil-azole derivatives as cytotoxic agents” (BMC Chemistry, 2024)
